Laboratory results reported in ChEMBL document CHEMBL4428131, “Scaffold-hopping from xanthines to tricyclic guanines: A case study of dipeptidyl peptidase 4 (DPP4) inhibitors” (Bioorg Med Chem, 2016).

Legend:
Prolyl endopeptidase FAP = target: T1, Prolyl endopeptidase FAP (Homo sapiens, UniProt Q12884); experiment: Inhibition of FAP (unknown origin) using Nle-Pro-AMC as substrate preincubated for 20 mins followed by substrate addition measured after 40 mins by fluorescence assay
T1 sequence (Q12884 whole entry): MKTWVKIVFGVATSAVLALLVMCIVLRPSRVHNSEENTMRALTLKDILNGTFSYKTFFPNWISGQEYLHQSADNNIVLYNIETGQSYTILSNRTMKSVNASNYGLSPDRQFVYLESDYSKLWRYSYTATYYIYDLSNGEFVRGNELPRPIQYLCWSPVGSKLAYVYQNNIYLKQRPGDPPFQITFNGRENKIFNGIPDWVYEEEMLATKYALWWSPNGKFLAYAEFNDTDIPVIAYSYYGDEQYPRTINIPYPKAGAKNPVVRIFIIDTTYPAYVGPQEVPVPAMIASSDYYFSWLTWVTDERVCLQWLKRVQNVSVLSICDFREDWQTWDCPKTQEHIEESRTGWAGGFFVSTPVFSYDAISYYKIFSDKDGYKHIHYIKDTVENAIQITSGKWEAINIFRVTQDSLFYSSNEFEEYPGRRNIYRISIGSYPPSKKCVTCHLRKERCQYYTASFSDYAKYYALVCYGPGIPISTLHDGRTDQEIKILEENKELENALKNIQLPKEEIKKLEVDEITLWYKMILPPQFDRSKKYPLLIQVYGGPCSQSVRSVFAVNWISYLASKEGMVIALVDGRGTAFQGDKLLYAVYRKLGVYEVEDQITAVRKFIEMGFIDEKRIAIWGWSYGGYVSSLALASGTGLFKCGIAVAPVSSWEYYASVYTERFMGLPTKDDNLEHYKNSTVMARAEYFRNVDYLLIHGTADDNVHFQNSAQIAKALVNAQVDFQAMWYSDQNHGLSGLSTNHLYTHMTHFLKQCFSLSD

Dipeptidyl peptidase 4 = Dipeptidyl peptidase 4 (Homo sapiens, UniProt P27487); experiment: Inhibition of DPP4 (unknown origin) using Gly-Pro-AMC as substrate preincubated for 30 mins followed by substrate addition measured after 50 mins by fluorescence assay
Dipeptidyl peptidase 4, sequence (P27487 whole entry): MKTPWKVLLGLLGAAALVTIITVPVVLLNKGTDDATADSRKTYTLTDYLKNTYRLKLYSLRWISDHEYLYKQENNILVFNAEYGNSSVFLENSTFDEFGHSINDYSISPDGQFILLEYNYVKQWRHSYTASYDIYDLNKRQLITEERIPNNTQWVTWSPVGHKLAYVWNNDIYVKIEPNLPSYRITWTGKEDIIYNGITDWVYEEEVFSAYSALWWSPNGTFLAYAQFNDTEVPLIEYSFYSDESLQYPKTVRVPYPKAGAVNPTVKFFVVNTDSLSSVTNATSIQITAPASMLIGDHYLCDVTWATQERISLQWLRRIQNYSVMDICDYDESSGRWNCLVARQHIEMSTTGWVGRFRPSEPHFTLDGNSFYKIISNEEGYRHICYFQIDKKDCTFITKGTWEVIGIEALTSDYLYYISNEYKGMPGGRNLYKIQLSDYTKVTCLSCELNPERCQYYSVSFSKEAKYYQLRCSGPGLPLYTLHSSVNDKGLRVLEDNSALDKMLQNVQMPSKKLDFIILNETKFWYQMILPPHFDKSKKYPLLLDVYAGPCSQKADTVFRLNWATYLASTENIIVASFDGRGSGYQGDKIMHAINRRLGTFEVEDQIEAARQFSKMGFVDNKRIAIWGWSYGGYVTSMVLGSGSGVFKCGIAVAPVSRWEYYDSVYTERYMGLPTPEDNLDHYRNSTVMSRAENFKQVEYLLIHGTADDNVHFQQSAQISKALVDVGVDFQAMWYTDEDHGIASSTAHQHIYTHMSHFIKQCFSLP

IC50 (Prolyl endopeptidase FAP) [µM]	IC50 (Dipeptidyl peptidase 4) [µM]	SMILES
14.7		Cc1nc(CN2C(=O)c3c(nc(N4CCC[C@@H](N)C4)n3CC3CC3(F)F)N3CCN=C23)nc2ccccc12 (stereo partly drawn)
0.755		CC(C)=CCn1c(N2CCC[C@@H](N)C2)nc2c1C(=O)N(Cc1nc(C)c3ccccc3n1)C1=NCCN12
> 100		CC#CCn1c(N2CCC[C@@H](N)C2)nc2c1C(=O)N(Cc1ccccc1C#N)C1=NCCN12
78.5		CC#CCn1c(N2CCC[C@@H](N)C2)nc2c1C(=O)N(Cc1cccc(C#N)c1)C1=NCCN12
9.92		Cc1nc(CN2C(=O)c3c(nc(N4CCC[C@@H](N)C4)n3Cc3cc(F)ccc3F)N3CCN=C23)nc2ccccc12
0.107		Cc1nc(CN2C(=O)c3c(nc(N4CCC[C@@H](N)C4)n3CC(=O)C3CC3)N3CCN=C23)nc2ccccc12
0.367		CC#CCn1c(N2CCC[C@@H](N)C2)nc2c1C(=O)N(Cc1nc(C)c3ccccc3n1)C1=NCCN12
3.12		Cc1nc(CN2C(=O)c3c(nc(N4CCC[C@@H](N)C4)n3CC3CC3)N3CCN=C23)nc2ccccc12
88.3		CC#CCn1c(N2CCC[C@@H](N)C2)nc2c1C(=O)N(Cc1ccc(C#N)cc1)C1=NCCN12
3.05		Cc1nc(CN2C(=O)c3c(nc(N4CCC[C@@H](N)C4)n3CC3CCC3)N3CCN=C23)nc2ccccc12
	> 10	CC#CCn1c(N2CCC[C@@H](N)C2)nc2c1c(=O)nc1n2CCCN1CCCc1ccccc1
15.3		Cc1nc(CN2C(=O)c3c(nc(N4CCC[C@@H](N)C4)n3Cc3ccccc3C#N)N3CCN=C23)nc2ccccc12
	> 10	CC#CCn1c(N2CCC[C@@H](N)C2)nc2c1C(=O)N(CCCc1ccccc1)C1=NCCCN12
4.62		Cc1nc(CN2C(=O)c3c(nc(N4CCC[C@@H](N)C4)n3Cc3cccc(F)c3)N3CCN=C23)nc2ccccc12
> 50		CC#CCn1c(N2CCC[C@@H](N)C2)nc2c1C(=O)N(Cc1ccc(OC)cc1)C1=NCCCN12
22.4		CC#CCn1c(N2CCC[C@@H](N)C2)nc2c1C(=O)N(Cc1cccc3ccccc13)C1=NCCCN12
4.64		Cc1nc(CN2C(=O)c3c(nc(N4CCC[C@@H](N)C4)n3Cc3ccccc3)N3CCN=C23)nc2ccccc12
0.268		CC#CCn1c(N2CCC[C@@H](N)C2)nc2c1C(=O)N(Cc1nc(C)c3ccccc3n1)C1=NCCCN12
